Earlier results as cited in patent publication US20100160295A1, “TREATMENT OF RESTLESS LEG SYNDROME AND SLEEP DISORDERS” (SYNOSIA THERAPEUTICS, priority 2008, published 2010).

Tested on: RLS patients
Details: RLS treatment, cited from earlier work

Row | SMILES | major side effects reported | augmentation (worsening of symptoms following initiation of therapy), patients affected (estimated)
1 | CCCN[C@H]1CCc2nc(N)sc2C1 [Pramipexole] | insomnia, dizziness, constipation, asthenia and hallucinations | 
2 | N[C@@H](Cc1ccc(O)c(O)c1)C(=O)O [levidopa] |  | 50-85%
